This passage reports viability results from article PMC12040169 (PLOS Biology, 2025).

The first data set in a line: in vitro. The following applies: human, hela cells, % viability.
Take `CCc1nc2ccc(C(=O)NCc3cccs3)cn2c1N(C)CC` [CBK145492]: the viability (usually a read-out of living cells in per cent, often relative to untreated cells) at 28.5 h, 10 µM was 108%.
The same measure, in the same setting: for `CCC(CO)Nc1nccnc1-c1cccs1` (stereo not drawn) [CBK036800] the value was 98.3%; for `CC(=O)N(C)c1nc(-c2ccccc2C)ccc1C(=O)N(C)C` [CBK106350], 89%; for `O=C(Cn1cccc2cc(C3CCCNC3)nc1-2)NC1CCCC1` (stereo not drawn) [CBK285015], 95.5%.
The same measure, in the same setting: the result for `O=C(O)CN1C(=O)[C@@H]2Cc3ccccc3CN2C1=O` [CBK202728] reads 82.8%; that for `CCCc1ccc(N(C)C(=O)c2ccc(C(C)(C)C)cc2)cc1` [CBK161612], 103%.
Same read-out and setting: for `CC(C)Nc1cc(OCc2ccc(-c3ccccc3)cc2)ncn1` [CBK115658] the value was 103%; for `O=C(Cn1c2ccccc2c2ccccc21)N1CCn2cnnc2C1` [CBK283724], 88.2%; for `CC1CN(c2cc(CNCc3cnn4ccccc34)ccn2)CCO1` (stereo not drawn) [CBK304018], 84.1%.
In the case of `CCNc1cncc(-c2ccc(N)cc2)n1` [CBK065658], the viability at 28.5 h, 10 µM turned out to be 112%.
The same measure, in the same setting: for `N#CCCn1cc(C(=O)N2CCOCC2)c(-c2cc3ccccc3o2)n1` [CBK306203] the value was 104%; for `O=C(c1ccc(F)cc1)C1CCN(Cc2ncc[nH]2)CC1` [CBK149135], 90.1%.
As for `COc1cc(OC)c2c(c1)OCC1CON(C)C21` (stereo not drawn) [CBK011446], the viability at 28.5 h, 10 µM was found to be 95.6%.
The same measure, in the same setting: for `COc1cc(CNC(=O)c2ccc(O)nc2)ccc1OCc1ccncc1` [CBK298297] the value was 96.9%.
Same read-out and setting: the result for `O=C(NC1CCN(CC(F)(F)F)C1=O)c1ccnc(C2CC2)n1` (stereo not drawn) [CBK306268] reads 97%.
The same measure, in the same setting: for `COc1ccc(Oc2nccnc2N2CCN(Cc3ccc4c(c3)OCO4)CC2)cc1OC` [CBK083048T] the value was 106%; for `Cc1cc(NC(=O)CCc2c(C)nc(N3CCOCC3)[nH]c2=O)no1` [CBK305636], 93.2%.
Regarding `Cc1ccc(NC(=O)CN2C(=O)c3ccccc3C2=O)c(O)c1` [CBK270028], the viability at 28.5 h, 10 µM came to 88.2%.
As to `c1csc(-c2cncc(NCCCN3CCOCC3)n2)c1` [CBK065623], the viability at 28.5 h, 10 µM was 102%.
Still for that read-out and setting: for `COc1ccccc1-c1nnc(NCc2ccc3c(c2)OCO3)nc1-c1ccccc1OC` [CBK286284] the value was 96.4%.
The same measure, in the same setting: the result for `CN(C)Cc1cnn(-c2ccc(Oc3ccccc3)cc2)n1` [CBK112865] reads 100%; that for `COC(=O)c1c(NC(=O)c2cc(C)on2)sc(C(=O)Nc2ccc(Cl)cc2)c1C` [CBK268116], 89.7%; that for `Cc1ccc(S(=O)(=O)NC2c3cccc4cccc(c34)C2Sc2n[nH]c(N)n2)cc1` (stereo not drawn) [CBK265875], 77.6%.
On to `COc1ccccc1-c1nccnc1NCc1cccs1` [CBK088682], for which the viability at 28.5 h, 10 µM was determined as 88%.
On the same count and under the same terms, for `O=C(c1cc(-c2ccc(Cl)cc2)nc2ccccc12)n1nnc2ccccc21` [CBK264640] the value was 101%; for `COC(=O)N/N=C(\C)c1ccc(Br)s1` [CBK027886], 103%.
For `Cc1cccc(C(=O)NCc2nnc(SCC(=O)N3CCOCC3)n2C)c1` [CBK269723], the viability at 28.5 h, 10 µM is 95.3%.
Same read-out and setting: the result for `Cc1ccccc1CNC(=O)c1ccc(C)c([N+](=O)[O-])c1` [CBK264010] reads 110%.
On the same count and under the same terms, for `O=C(NC1CCc2ccccc21)N1CCN(CCc2ccccc2)CC1` (stereo not drawn) [CBK158936] the value was 96.1%; for `CN(C)CCNCCOc1cccc([N+](=O)[O-])c1` [CBK267803C], 99.7%; for `O=C1NC2(CCN(C(=O)Cc3c(F)ccc(F)c3F)CC2)Oc2ccc(-c3ccoc3)cc21` [CBK115848], 83.2%.
The same measure, in the same setting: the result for `CC1CCN(Cc2c(O)ccc3occ(C(=O)c4ccccc4)c23)CC1` [CBK111319] reads 89.8%.
For the compound `CC(C)(C)C1=CC2=NC3(CCC3)C3C[C@](O)(CO)[C@@H](O)[C@@H]3N2O1` (stereo partly drawn) [CBK303262], the viability at 28.5 h, 10 µM came to 91.1%.
As to `Cc1nnc(NC(=O)Cc2ccc(F)cc2)s1` [CBK287360], the viability at 28.5 h, 10 µM stood at 103%.
Same read-out and setting: for `CC1(OCCCO)SC(NC2CCCCCC2)=NC1=O` (stereo not drawn) [CBK107927] the value was 91.5%; for `Oc1cccc(OCCOc2cc(C(F)(F)F)ccn2)c1` [CBK115788], 84.8%.
Still for that read-out and setting: the result for `CCCn1c(Nc2nc3ccccc3n2C)nc2ccccc21` [CBK268310] reads 85.7%; that for `O=C1NC/C=C/CC2(CCN(C(=O)CCc3cccnc3)CC2)C(=O)NCCOc2ccccc21` [CBK292007], 88.3%.
Still for that read-out and setting: the result for `COc1ccc(N)cc1OCCn1ccnc(N2CCNCC2)c1=O` [CBK024211C] reads 98.3%.
As for `O=C(Nc1ccc(=O)n2c1[C@@H]1C[C@@H](CN(C(=O)c3ccc(F)cc3)C1)C2)c1cncnc1` [CBK288713], the viability at 28.5 h, 10 µM came out at 112%.
Same read-out and setting: the result for `c1cc2c3c(ccc(CSCCc4ccncc4)c3c1)CC2` [CBK261074G] reads 90.4%; that for `Cc1c(C(=O)N(C)C2CCNC2)nnn1-c1ccc2ncccc2c1` (stereo not drawn) [CBK304698], 94.5%; that for `Cc1ccc(Cc2cnc(NC(=O)CN3CSCC3=O)s2)cc1Cl` [CBK305001], 82%.
The same measure, in the same setting: for `Cc1ccccc1-c1nnc(SC(C)C)n1CCNCCO` [CBK200084T] the value was 86.9%.
For the compound `CCOC(=O)C1=C(CSc2nc3ccccc3[nH]2)NC(=O)NC1c1cccc([N+](=O)[O-])c1` (stereo not drawn) [CBK268889], the viability at 28.5 h, 10 µM turned out to be 96.2%.
Same read-out and setting: for `Cc1ccc(C(=O)N2CCCN(C(=O)CN3CCCC3)C2)cc1` [CBK039081] the value was 87.2%; for `O=C(NCC1CCCCC1)C1(Cc2ccc(-c3ccncc3)cc2)CCOCC1` [CBK285564], 121%; for `CCC(NC(=O)Nc1ccccc1C(=O)O)(C(F)(F)F)C(F)(F)F` [CBK268000], 93.2%.
Regarding `O=C(NCCN1CCOCC1)NCC12CC3CC(C1)CC(c1ccccc1)(C3)C2` [CBK268388], the viability at 28.5 h, 10 µM is 89.1%.
In the case of `COc1ccc(C(=O)C2=C(O)C(=O)N(CCCN(C)C)C2c2ccc(Cl)c(Cl)c2)cc1` (stereo not drawn) [CBK264723], the viability at 28.5 h, 10 µM came to 94.4%.
Same read-out and setting: the result for `CC(=O)NCc1cccc(-c2cc(C(=O)Nc3ccc4c(c3)OCCO4)cnc2O)c1` [CBK149871T] reads 91.6%.
With `CN(CCCC(=O)Nc1nnc[nH]1)S(=O)(=O)c1ccccc1` [CBK267380], the viability at 28.5 h, 10 µM is 82.4%.
For the compound `Cn1c(CNc2ccc(C(=O)O)cc2)nc2ccccc21` [CBK262501], the viability at 28.5 h, 10 µM was found to be 95.1%.
Turning to `C#C[C@H]1C[N@@]2CC[C@H]1C[C@@H]2CNC(=O)Nc1ccc(C(C)=O)cc1` [CBK288755], the viability at 28.5 h, 10 µM was 114%.
On the same count and under the same terms, the result for `COCc1c(Br)c(C)nc(OCC(=O)O)c1C#N` [CBK266532] reads 96.9%.
Still for that read-out and setting: the result for `O=C(c1ccoc1)N1CCC2(CCCN(Cc3c(F)cccc3F)C2)C1` (stereo not drawn) [CBK132806] reads 95.1%.

Staying with this data set, now noted: human, hela cells, % viability, bulk resorufin, single well.
Regarding `C=CCN1C(=O)/C(=C/c2cc(Cl)c(OCc3cccc(C(=O)O)c3)c(OC)c2)C(=O)NC1=S` [CBK264877G], the viability at 28.5 h, 10 µM came out at 121%.
